No end group written: not given here.
What was measured:
[1] = system: TAP1 serum (Taiwan Miltenberger antibody positive sample); experiment: Anti-MUT serum (TAP1) reactivity of modified RBCs (saline and AHG); format: cell-based, human; design: key: 0 or ‘−’ no agglutination; 0 or ‘−’ no agglutination; 1+ or 3=very weak agglutination; 1+ or 3=very weak agglutination; 2+ or 5=weak agglutination; 2+ or 5=weak agglutination; 3+ or 8=moderate strong agglutination; 3+ or 8=moderate strong agglutination; 4+ or 10/12=strong agglutination; 4+ or 10/12=strong agglutination; 4+ or 10/12=strong agglutination; details: construct 50 μg/ml
Description: (§1) The suspensions are either: • 1. incubated for 2 hours at 37° C. before being washed and suspended in a cell medium for serological analysis at a concentration of 0.8 to 3% (Method 1); or • 2. incubated for 3 to 4 hours at room temperature (circa 25° C.) followed by 18 hours at 4° C. before being washed and suspended in a cell medium for serological analysis at a concentration of 0.8 to 3% (Method 2).
(§2) Serological reactions are graded or scored by either of two established systems (0 or ‘−’ no agglutination, 1+ or 3=very weak agglutination, 2+ or 5=weak agglutination, 3+ or 8=moderate strong agglutination, 4+ or 10/12=strong agglutination)

[2] = system: natural Mi III antibody reactive human serums; experiment: Positive serum reactivity of modified RBCs in the field; format: cell-based; design: key: 0 or ‘−’ no agglutination; 0 or ‘−’ no agglutination; 1+ or 3=very weak agglutination; 1+ or 3=very weak agglutination; 2+ or 5=weak agglutination; 2+ or 5=weak agglutination; 3+ or 8=moderate strong agglutination; 3+ or 8=moderate strong agglutination; 4+ or 10/12=strong agglutination; 4+ or 10/12=strong agglutination; 4+ or 10/12=strong agglutination; details: 22 at 50, 17 and 24 at 200 μg/ml; 3 h RT then 18 h 4° C.
Description: as §1, §2

[3] = system: Miltenberger Antibody Positive Panel; experiment: Reactivity of modified RBCs against the Miltenberger Antibody Positive Panel; format: cell-based, human; design: key to score vs panel 15 TAP2 / score vs panel 4 T7202 / score vs panel 8 T5896 / score vs panel 2 T217 / score vs panel 3 T165 / score vs panel 14 TAP1 / score vs panel 10 Mia / score vs panel 11 Mur / score vs panel 12 Gam / score vs panel 6 T6025 / score vs panel 7 T8445 / score vs panel 9 MIII / score vs panel 13 BoxH / reactivity with Panel Serum #7 (T8445) / agglutination score, Panel Serum #7 (T8445): 0 or ‘−’ no agglutination; 0 or ‘−’ no agglutination; 1+ or 3=very weak agglutination; 1+ or 3=very weak agglutination; 2+ or 5=weak agglutination; 2+ or 5=weak agglutination; 3+ or 8=moderate strong agglutination; 3+ or 8=moderate strong agglutination; 4+ or 10/12=strong agglutination; 4+ or 10/12=strong agglutination; 4+ or 10/12=strong agglutination
Description: (§3) Red blood cells are modified by mixing 1 part by volume of washed packed red blood cells with 1 part by volume of peptide-lipid construct dispersed at a concentration of 10 to 1000 pg/ml in cell media (Celpresol™).
as §1, §2
(§4) Serological platforms used are Tube (addition of reagents and reactants into plastic or glass serology tubes and after appropriate incubations, washing and centrifugation observing reactions macroscopically by eye and a 10× magnification eyepiece and scoring) and BioVue™ (addition of reactants into cassettes containing beads (including some reactants) and after appropriate incubations and centrifugation observing the reaction patterns trapped within the Gel matrix). BioVue is the serological column agglutination platform of Ortho-Clinical Diagnostics. Diamed is the serological column agglutination platform of Diamed AG.

[4] = system: antibody negative serums; experiment: False positive reactions of modified RBCs with antibody negative serums/plasma; format: cell-based, human; design: key to Reaction score BioVue AHG, PAC samples 1-46, 49, 50, 52, 53 / Reaction score BioVue AHG, PAC sample 47 / Reaction score BioVue AHG, PAC sample 48 / Reaction score BioVue AHG, PAC sample 51 / agglutination score, T series serum 2 / agglutination score, T series serum 42 / agglutination score, T series serum 63 / agglutination score, T series serum 62 / agglutination score, T series serum 7 / agglutination score, T series serum 20 / agglutination score, T series serum 48 / agglutination score, T series serum 22 / agglutination score, T series serum 39 / agglutination score, T series serum 23 / agglutination score, T series serum 30 / agglutination score, T series serum 4 / agglutination score, T series serum 31 / agglutination score, T series serum 44 / agglutination score, T series serum 61 / agglutination score, T series serum 18 / agglutination score, T series serum 21 / agglutination score, T series serum 28 / agglutination score, T series serum 55 / agglutination score, false positive serum T18 / agglutination score, false positive serum T21 / agglutination score, false positive serum T28 / agglutination score, false positive serum T55 / agglutination score, false positive serum T78 / agglutination score, false positive serum T92: 0 or ‘−’ no agglutination; 0 or ‘−’ no agglutination; 1+ or 3=very weak agglutination; 1+ or 3=very weak agglutination; 2+ or 5=weak agglutination; 2+ or 5=weak agglutination; 3+ or 8=moderate strong agglutination; 3+ or 8=moderate strong agglutination; 4+ or 10/12=strong agglutination; 4+ or 10/12=strong agglutination; 4+ or 10/12=strong agglutination; details: BioVue AHG cards
[5] = system: Miltenberger antibody positive sera; experiment: BioVue AHG card column agglutination serology of modified red blood cells; format: cell-based, human; design: key: 0 or ‘−’ no agglutination; 0 or ‘−’ no agglutination; 1+ or 3=very weak agglutination; 1+ or 3=very weak agglutination; 2+ or 5=weak agglutination; 2+ or 5=weak agglutination; 3+ or 8=moderate strong agglutination; 3+ or 8=moderate strong agglutination; 4+ or 10/12=strong agglutination; 4+ or 10/12=strong agglutination; 4+ or 10/12=strong agglutination; details: construct 100 μg/ml
Description: as §3, §1, §2, §4

[6] = system: sera reactive with modified RBCs; experiment: Neutralisation of reactive sera with free peptide, retested against modified RBCs (BioVue); format: cell-based, human; design: key: 0 or ‘−’ no agglutination; 0 or ‘−’ no agglutination; 1+ or 3=very weak agglutination; 1+ or 3=very weak agglutination; 2+ or 5=weak agglutination; 2+ or 5=weak agglutination; 3+ or 8=moderate strong agglutination; 3+ or 8=moderate strong agglutination; 4+ or 10/12=strong agglutination; 4+ or 10/12=strong agglutination; 4+ or 10/12=strong agglutination; details: cells modified with the peptide-lipid construct M28; AHG test in BioVue
Source text: Optionally, where F is a peptide, the method includes the preliminary step of: • Adding an amount of the peptide to the sample of the serum; where the amount of the peptide is sufficient to neutralize non-specific agglutination or confirm specificity of the reactive antibody.

[7] = cells modified at 50 μg/ml, 2 hour 37° C.

M24: DOPE peptide-lipid construct: Hil peptide EETGETGQLV, leader c, spacer CMG(2) (EETGETGQLVC; also: DOPE peptide-lipid construct via leader Cys, spacer CMG(2))
TAP 1 Serum, AHG score [1]: 0
TAP 1 Serum, Saline score [1]: 0
score vs Mi III reactive serum 912485657-9 [2]: 0
score vs Mi III reactive serum 914146821-8 [2]: 0
score vs Mi III reactive serum 922390844-5 [2]: 0
score vs Mi III reactive serum 926190919-0 [2]: 0
score vs Mi III reactive serum 926555294-1 [2]: 0
score vs Mi III reactive serum 927175131-4 [2]: 0
score vs Mi III reactive serum 927299700-1 [2]: 0
score vs Mi III reactive serum 927516053-2 [2]: 0
score vs Mi III reactive serum 927619701-8 [2]: 0
score vs Mi III reactive serum 932360876-4 [2]: 0
score vs Mi III reactive serum 932467774-5 [2]: 0
score vs Mi III reactive serum 932809044-1 [2]: 0
score vs Mi III reactive serum 942223755-1 [2]: 0
score vs Mi III reactive serum 942404708-4 (row interpreted Mur) [2]: 0
score vs Mi III reactive serum 942404708-4 (row interpreted other) [2]: 0
score vs Mi III reactive serum 942421413-0 [2]: 0
score vs Mi III reactive serum 942423002-4 [2]: 3
score vs Mi III reactive serum 942433813-3 [2]: 0
score vs Mi III reactive serum 942433855-3 [2]: 8
score vs Mi III reactive serum 942442720-2 [2]: 0
score vs Mi III reactive serum 942448627-8 [2]: 5
score vs Mi III reactive serum 942753165-4 [2]: 8
score vs Mi III reactive serum 942762589-1 [2]: 3
score vs Mi III reactive serum 9322338631 [2]: 0
score vs Mi III reactive serum 9325490091 [2]: 0
score vs Mi III reactive serum 9327986660 [2]: 0
score vs Mi III reactive serum 9328118428 [2]: 5
score vs Mi III reactive serum 9328154853 [2]: 3
score vs Mi III reactive serum 9328791834 [2]: 0
score vs Mi III reactive serum 9424248012 [2]: 0
score vs Mi III reactive serum 9424292604 [2]: 5
score vs Mi III reactive serum 9424396133 [2]: 0
score vs Mi III reactive serum 9425256505 [2]: 8
score vs Mi III reactive serum 9427455417 [2]: 5
score vs Mi III reactive serum 9427613497 [2]: 0
score vs Mi III reactive serum 9427615156 [2]: 0
score vs Mi III reactive serum S-3 [2]: 5

M28: DOPE peptide-lipid construct: Mur peptide TYPAHTANE, leader c, spacer CMG(2) (TYPAHTANEC; also: DOPE peptide-lipid construct via leader Cys, spacer CMG(2))
score vs panel 2 T217 ([3]; Table 9, construct 50 μg/ml): 0
score vs panel 4 T7202 ([3]; Table 9, construct 50 μg/ml): 10
score vs panel 7 T8445 ([3]; Table 9, construct 50 μg/ml): 8
score vs panel 8 T5896 ([3]; Table 9, construct 50 μg/ml): 0
score vs panel 15 TAP2 ([3]; Table 9, construct 50 μg/ml): 8
agglutination score, Panel Serum #7 (T8445) ([3]; cells modified at 50 μg/ml, 2 hour 37° C., BioVue AHG cards): 8
reactivity with Panel Serum #7 (T8445) ([3]; construct 50 μg/ml (2 hours, 37° C.)): 8
% positive ([4]; T series reactives (n = 58)): 9%
agglutination score, T series serum 2 [4, 7]: 10
agglutination score, T series serum 4 [4, 7]: 8
agglutination score, T series serum 7 [4, 7]: 0
agglutination score, T series serum 18 [4, 7]: 0
agglutination score, T series serum 20 [4, 7]: 0
agglutination score, T series serum 21 [4, 7]: 0
agglutination score, T series serum 22 [4, 7]: 0
agglutination score, T series serum 23 [4, 7]: 0
agglutination score, T series serum 28 [4, 7]: 0
agglutination score, T series serum 30 [4, 7]: 0
agglutination score, T series serum 31 [4, 7]: 8
agglutination score, T series serum 39 [4, 7]: 0
agglutination score, T series serum 42 [4, 7]: 0
agglutination score, T series serum 44 [4, 7]: 10
agglutination score, T series serum 48 [4, 7]: 0
agglutination score, T series serum 55 [4, 7]: 0
agglutination score, T series serum 61 [4, 7]: 10
agglutination score, T series serum 62 [4, 7]: 0
agglutination score, T series serum 63 [4, 7]: 0
TAP 2 Serum BioVue AHG score [5]: 10
Pre-neutralisation serology, PAC70 [6]: 8
Pre-neutralisation serology, PAC71 [6]: 5
Pre-neutralisation serology, PAC72 [6]: 5
Pre-neutralisation serology, TAP2 [6]: 8
